Measurements as given in ChEMBL document CHEMBL3301555, “MMV Malaria Box screening in pLDH viability assay against Plasmodium falciparum gametocytes”.

Test system: Plasmodium falciparum
Assay: MMV: Measure of pLDH activity as indication of parasite viability. Gametocytogenesis of 3D7 Plasmodium falciparum strain was induced in vitro and asexual parasites were depleted with N-acetylglucosamine. Gametocytes were treated with dihydroartemisinin, epoxomicin, methylene blue, primaquine, puromycin or chloroquine in 96-well plates and the pLDH activity was evaluated using a modified Makler protocol. Mosquito infectivity was measured by the standard membrane feeding assay.
Type: functional
Design: concentration or dose not given beside the values

| SMILES | Growth Inhibition [%] |
| --- | --- |
| CCN1CCCC1CNc1[nH]cnc2c3cc(Cl)ccc3nc1-2 (stereo unspecified) | 8.5536 |
| COc1ccc(-c2c(C)nn3c(N)c(C#N)cnc23)cc1OC | 32.2252 |
| CSC1=NC(=Nc2c(C)cccc2C)C2(CCC(C(C)(C)C)CC2)N1c1ccc(Cl)cc1 (stereo unspecified) | -2.9236 |
| C[n+]1c2ccccc2nc2ccc(NCCO)cc21 | 16.8202 |
| Cc1cc(C)cc(Nc2cc(C)nc3nc(C(F)(F)F)nn23)c1 | -10.2568 |
| O=C(NCC(c1ccsc1)N1CCCCCC1)c1ccc(C(F)(F)F)cc1 (stereo unspecified) | -3.1098 |
| COc1ccc(-c2cc3c(SCC(=O)Nc4cc(C(F)(F)F)ccc4Cl)nccn3n2)cc1 | 0.117 |
| Cc1ccc(-c2cc3c(SCC(=O)Nc4cc(C(F)(F)F)ccc4Cl)nccn3n2)cc1 | -10.2658 |
| CCN(CC)CCNc1ncnc2c1[nH]c1ccc(Cl)cc12 | 10.0038 |
| CCOC(=O)c1cnc2ccc(CC)cc2c1O | 41.8585 |
| CCN(CC)CCNc1ccnc2cc(Cl)ccc12 | 9.9324 |
| CCCCCC(=O)N1c2ccccc2N=C2CC(c3ccc(OC)c(OC)c3)CC(O)=C2C1c1ccc(C(F)(F)F)cc1 (stereo unspecified) | 33.4948 |
| Cc1cc(Nc2ccc3ccccc3c2)n2ncnc2n1 | -5.4308 |
| Cc1cc(NCCN2CCCCC2)c2ccc3ccccc3c2n1 | 17.8584 |
| COc1ccc(-n2ccnc2SCC(=O)Nc2cc(C)ccc2C)c(OC)c1 | 2.884 |
| CCN1CCN(Cc2ccc(NC(=O)c3cc4ccc5cccnc5c4[nH]3)cc2)CC1 | 4.9364 |
| COc1ccc(-c2nc(NC(=O)CS(=O)(=O)c3ccc(F)cc3)sc2C)cc1 | 30.52 |
| O=C(O)C1Cc2c([nH]c3ccccc23)C(c2ccc(Cl)cc2Cl)N1 (stereo unspecified) | 8.0448 |
| Cc1ccc(N2C(=O)C3C(C2=O)C2(c4ccccc4)C(=O)C3(c3ccccc3)C(c3ccccc3)=C2c2ccccc2)cc1 (stereo unspecified) | 4.6846 |
| CCc1c(C)c(=N)c2ccccc2n1C.I | -4.4994 |
| CCOC(=O)c1cn(CC)c2cc(N(C)CCc3ccc(OC)c(OC)c3)c(F)cc2c1=O | 25.5006 |
| CCC(c1ccccc1)c1nn2c(-c3cccs3)nnc2s1 (stereo unspecified) | 4.041 |
| CC(C)(C)c1ccc(O)c(CNC2CCCCC2)c1 | 30.335 |
| O=[N+]([O-])c1ccc(C=NNc2nc3ccccc3[nH]2)cc1 | -2.3354 |

| SMILES | Growth Inhibition [%] |
| --- | --- |
| CCOc1cc2c(cc1OCC)C(c1cc(OC)c(O)cc1Cl)NCC2 (stereo unspecified) | 24.0654 |
| CC1CN(C(=O)c2sc3ccccc3c2Cl)CC(C)O1 (stereo unspecified) | 1.741 |
| CN(C)c1ccc(C=Cc2nc(=O)c3ccccc3o2)cc1 | 1.8448 |
| COc1ccc(C2=C(c3ccc(OC)cc3)C3(c4ccccc4)C(=O)C2(c2ccccc2)C2C(=O)N(c4ccc(C)cc4)C(=O)C23)cc1 (stereo unspecified) | -4.8036 |
| CCOC(=O)c1c(NC(=O)c2ccccc2)sc2c(O)c(CN(CC)CC)ccc12 | 35.4934 |
| CCOC(=O)C1=C(c2ccccc2)N=c2sc(=Cc3cc(C)n(-c4ccc(F)cc4)c3C)c(=O)n2C1c1cccc(OC)c1OC (stereo unspecified) | -7.255 |
| CCC1(C)CC(CCNCc2ccccc2O)(c2ccc(C)cc2)CCO1 (stereo unspecified) | 26.52 |
| OC(CNC1CCCCC1)Cn1c2ccccc2c2ccccc21 (stereo unspecified) | 33.5526 |
| Cc1cc(Nc2ccc(C)c(Cl)c2)n2nc(C(F)(F)F)nc2n1 | 1.818 |
| COc1cccc(C=Cc2nc(=O)c3ccccc3o2)c1OC | 2.1344 |
| CCCN(CCC)CC(O)COc1ccccc1C(=O)Nc1ccccc1 (stereo unspecified) | 34.3502 |
| Fc1ccc2[nH]c3c(NCCCN4CCOCC4)ncnc3c2c1 | 3.632 |
| COc1ccc(C(=O)Nc2nonc2-c2ccc(OC)c(OC)c2)cc1Cl | 7.9826 |
| COc1ccc(C=C2SC(=N)N(c3ccccc3OC)C2=O)cc1 | 26.57 |
| COc1ccc(NC(=O)C2c3ccccc3C(=O)N(CC(C)C)C2c2cccs2)cc1Cl (stereo unspecified) | 14.3436 |
| CCOC(=O)c1c(C)n(-c2ccc(Cl)cc2)c2ccc(OC(=O)C=Cc3ccccc3)cc12 | -3.2706 |
| COc1ccc2c(c1)OC(O)(C(F)(F)C(F)(F)F)CC2=O (stereo unspecified) | 11.5806 |
| C=CC12CCN(CC1)C(C(O)c1ccnc3ccc(OC)cc13)C2.Cl (stereo unspecified) | 15.913 |
| Cc1ccc(-c2cc3nc4c(c(O)n3n2)CCCC4)cc1 | 9.811 |
| Cc1cccc(Nc2nc(N)c3ccccc3n2)c1.Cl | -0.3732 |
| CCn1c(CN2CCN(Cc3ccccc3)CC2)nc2cc(NC(=O)c3cccs3)ccc21 | 17.812 |
| COc1ccccc1CNC(=O)CCn1c(=O)[nH]c2ccccc2c1=O | -1.4414 |
| c1ccc2cc3c(Nc4ccc(N5CCOCC5)cc4)ccnc3cc2c1 | 12.7974 |
| Cc1cc(C)c2c(c1)OCN(Cc1ccccc1Cl)C2 | 32.69 |

| SMILES | Growth Inhibition [%] |
| --- | --- |
| COc1cc(OC)c(N(C)C(=O)c2cc3c(s2)-c2ccccc2S(=O)(=O)C3)cc1Cl | 6.301 |
| CCOC(=O)c1cn(CC)c2cc(N3CCCCC3)c(F)cc2c1=O | 27.8444 |
| CCCc1cc(O)c2c3c(c(=O)oc2c1)CN(C)CC3 | 31.2868 |
| Cc1cc(NC(=O)C2c3ccccc3C(=O)N(CC(C)C)C2c2cccs2)no1 (stereo unspecified) | 21.7574 |
| Cl.Oc1ccccc1CNCC12CC3CC(CC(C3)C1)C2 | 28.0055 |
| CNCCCNc1ccnc2cc(Cl)ccc12 | -4.352 |
| COc1ccccc1CNC(=O)CCn1c(=O)[nH]c2ccsc2c1=O | -5.0228 |
| COc1ccc(Br)cc1C1Nc2ccc3ccccc3c2C2=C1C(=O)CC(c1ccccc1)C2 (stereo unspecified) | 7.0344 |
| Cc1cc(C=C2SC(=Nc3ccccc3)N(C3CCCC3)C2=O)c(C)n1-c1ccc(Cl)cc1 | -0.992 |
| CC1CCN(Cc2ccc(NC(=O)c3cc4ccc5cccnc5c4[nH]3)cc2)CC1 | 2.4882 |
| CCc1ccc(Nc2cc(C)c3ccc(O)cc3n2)cc1.Cl | 27.662 |
| COc1ccc2c(=O)cc(C(Cl)(Cl)Cl)oc2c1 | 12.9182 |
| COc1ccc(-c2nc3cc(Cc4ccc5[nH]c(-c6ccc(OC)cc6)nc5c4)ccc3[nH]2)cc1 | 4.7376 |
| CCOC(=O)c1ccc2nc(-c3ccccc3)cc(O)c2c1 | 40.6125 |
| Cc1cc(Nc2ccc(Cl)cc2)n2nc(C(F)(F)F)nc2n1 | 7.7522 |
| COc1ccc(C(C)=O)cc1N1C(=O)C2C(C1=O)C1(c3ccccc3)C(=O)C2(c2ccccc2)C(c2ccc(C)cc2)=C1c1ccc(C)cc1 (stereo unspecified) | -2.6232 |
| CCCCCCOC(=O)C1=C(C)NC(=O)NC1c1ccccc1F (stereo unspecified) | 6.2916 |
| Cc1ccc(N2C3c4ccccc4N(S(=O)(=O)c4ccc(C)cc4)C2c2ccccc2N3S(=O)(=O)c2ccc(C)cc2)cc1 | -2.5084 |
| CCCc1c(CC)c(=N)c2ccccc2n1C | 4.7322 |
| Cc1ccc(Nc2nc(NCCO)c3ccccc3n2)cc1C | 11.5812 |
| CCOC(=O)c1cnc2c(C)cc(C)cc2c1Nc1ccc(OC)c(OC)c1 | -11.2088 |
| COc1ccc(NC(=O)C2c3ccccc3C(=O)N(CC(C)C)C2c2cccs2)cc1 (stereo unspecified) | 28.379 |
| c1ccc(Cn2c(N=Nc3c(Nc4ccccc4)ccc4ccccc34)nc3ccccc32)cc1 | 28.0754 |
